One assay relates to Primary CLL cells. Description: AnnexinV/PI assay on primary CLL cells. The format is cell-based, human. The method, then: PBMCs or CLL cells (5*10^6 cells/ml) were incubated for 24 h with different compounds at concentrations from 0.01 to 100 μM. Cell survival was normalized to DMSO control [vehicle]. See Example 1.
Primary CLL or peripheral blood mononuclear cells of healthy donors (5*10^6/ml) were incubated for 24 h with different compounds according to the invention and NO-ASA as a control. The compounds were added in different concentrations, in particular in concentrations from 0.01-100 μM. Cell survival was assessed by AnnexinV/PI assay (Kit commercially available, e.g. by Biotium Inc, USA; or Phoenix Flow Systems, US), the results were normalized to DMSO control [vehicle] and dose response curves were calculated using a non-linear regression model.

In the next assay the test system is MEC-1. Description: CellTiter-Glo ATP assay, MEC-1 cell line. The class given is cell-based. The conditions noted are these: Homo sapiens, MEC1; 24 h, CellTiter-Glo. The procedure:
(§1) Several cell lines (n=5) were treated with different concentrations of p-NO-ASA, B9, B12 and B13 ranging between 0.01 μM and 1000 μM for 24 hours followed by addition of luminogenic CellTiter-Glo®-reagent. […] For each cell line the order of used compound in the bar chart is from left to right as following: p-NO-ASA, B9, B12, B13.
(§2) Treatment success in CLL may depend on cytogenetic and molecular parameters as for instance del13q or TP53 gene disruption. Therefore, the NO-ASA derivatives were examined on (chronic) B cell lymphoma cell lines with different geno- and phenotypes (JVM3, EHEB, U2932, MEC-1, GRANTA-519). The cells were treated with concentrations between 0.01 and 1000 μM for 24 h followed by the addition of luminogenic CellTiter-Glo® reagent.
(In general: ATP-based viability assays read luminescence as a measure of living cells.)

For the next assay, the system named is JVM-3. Description: CellTiter-Glo ATP assay, JVM-3 cell line. The format is cell-based, human. The conditions noted are these: 24 h, 0.01-1000 μM. The method, then: as §1, §2
Another assay deals with EHEB. Description: CellTiter-Glo ATP assay, EHEB cell line. Conditions: 24 h, 0.01-1000 μM. The class given is cell-based. The procedure:
as §1, §2

In assay [1] the test system is CLL cells without a TP53 mutation. Description: FACS analysis of treated CLL cells without TP53 mutation. The format is cell-based, human. The conditions noted are these: 24 h, 0.01-100 μM, FIG. 6. The procedure:
(§3) Isolated, primary CLL cells were treated for 24 h with the EC50 of the different compounds and the ATP-content was measured by flow cytometry. For each used compound the order of mean EC50 concentrations in the bar chart is from left to right as following: EC50 CLL cells TP53 unmut (unmutated=without mutation), EC50 CLL cells TP53 mut (mutated=with mutation).
(§4) Further, the derivatives B9, B12 and B13 were tested in comparison to para-NO-ASA on CLL cells which harbour a TP53 mutation. The patient subgroup with a TP53 disruption is characterized by a considerable dismal prognosis. CLL cells of patients with and without the TP53 mutation were treated with five different concentrations (0.01, 0.1, 1, 10, 100 μM) of para-NO-ASA, B9, B12 and B13 for 24 h.
(Flow cytometry measures light scatter and fluorescence of single cells or particles in a stream.)

The subject of a further assay is TP53-mutated CLL cells. Description: FACS analysis of treated CLL cells with TP53 mutation. The class given is cell-based, human. Conditions: 24 h, 0.01-100 μM, FIG. 6. The method, then: as §3, §4
Assay [2] concerns colon carcinoma cell line SW480. Description: cells. The format is cell-based. Conditions: Homo sapiens, SW480, 24 h, read-out: Viability assay EC50, SW480. The method, then:
The cell lines (n=5) were treated with different concentrations of p-NO-ASA, B9, B12 and B13 ranging between 0.01 μM and 100 μM for 24 hours followed by addition of luminogenic CellTiter-Glo®-reagent (see Example 5).
(§5) In the following experiment the possible therapeutic window for NO-ASA derivatives was investigated. […] The melanoma cell line MelJuso, the colon carcinoma cell line SW480, the small cell lung cancer cell line HCC44, the ovarian adenocarcinoma cell line COLO704 and the acute myeloid leukemia cell line SH2 were treated with concentrations of p-NO-ASA and B9, B12 and B13 in a range between 0.01 μM and 100 μM for 24 h, followed by addition of luminogenic CellTiter-Glo® reagent.
(§6) Table accompanying Example 5. Overview of the EC50 values of cell survival analyzed by ATP content and Annexin V/PI assay. n.t.; not tested

Assay [3] deals with acute myeloid leukemia cell line SH2. Description: Viability assay (ATP content, CellTiter-Glo), SH2. The format is cell-based. Conditions: 24 h. The procedure: as §5, §6
Assay [4] deals with melanoma cell line MelJuso. Description: Viability assay (ATP content, CellTiter-Glo), MelJuso. The class given is cell-based. Conditions: Homo sapiens, MEL-JUSO, 24 h. The procedure: as §5, §6
For assay [5], the system named is small cell lung cancer cell line HCC44. Description: Viability assay (ATP content, CellTiter-Glo), HCC44. The class given is cell-based. The conditions noted are these: Homo sapiens, HCC44, 24 h. The method, then: as §5, §6
For assay [6], the system named is ovarian adenocarcinoma cell line COLO704. Description: Viability assay (ATP content, CellTiter-Glo), COLO704. The conditions noted are these: COLO 704, 24 h. The class given is cell-based. The procedure:
as §5, §6

The test system of assay [7] is acute myeloid leukemia cell line SH2. Description: Annexin V/PI assay, SH2. The class given is cell-based. Conditions: 24 h.
For assay [8], the system named is small cell lung cancer cell line HCC44. Description: Annexin V/PI assay, HCC44. The class given is cell-based. Conditions: Homo sapiens, HCC44, 24 h.
Assay [9] relates to ovarian adenocarcinoma cell line COLO704. Description: Annexin V/PI assay, COLO704. The conditions noted are these: COLO 704, 24 h. The class given is cell-based.
Assay [10] concerns SW480, MelJuso, HCC44, SH2 and COLO704 cell lines. The class given is cell-based. Conditions: 24 h, 0.01-100 μM. The method, then: as §5
The test system of a further assay is caspases 3 and 7. Description: caspase-3/7 assay in CLL cells. The conditions noted are these: Homo sapiens, CLL cell, 6 h, 0.01-20 μM, luminogenic caspase-3/7-substrate, read-out: activation of caspases 3 and 7, EC50. The format is cell-based. An excerpt:
FIG. 8 depicts the involvement of caspase-mediated apoptosis in CLL cells upon treatment with p-NO-ASA, B9, B12 and B13. Representative blots of 3 independent experiments are shown. Untreated and DMSO (1%) treated cells served as control. beta-actin=loading control (FIG. 8A). para-NO-ASA and B9 induced a concentration-dependent increase in caspase-3/7-activation (FIG. 8B).
To determine whether the toxicity on CLL cells is due to caspase-mediated apoptosis, the cleavage of PARP (Poly(ADP-ribose)-Polymerase 1) and XIAP (X-linked inhibitor of apoptosis) was analyzed by immunoblot. CLL cells were cultured alone, with 1% DMSO or with EC50 of p-NO-ASA, meta-NO-ASA, B9, B12 and B13 for 24 h followed by protein lysation and western blot analysis using antibodies to detect prognostic apoptotic proteins (XIAP, PARP). […] All compounds tested induced PARP and XIAP cleavage (FIG. 8A). Further a caspase-3/7 assay was carried out. CLL cells were incubated with para-NO-ASA and B9 in different concentrations ranging from 0.01 μM to 20 μM for 6 h followed by addition of luminogenic caspase-3/7-substrate. This indicates the reduction of the survival of CLL cells upon treatment with p-NO-ASA and B9 due to the induction of caspase-mediated apoptosis.

pEC50: −log10 of the molar value.

As for `O=C(Oc1ccc(CO[N+](=O)[O-])cc1)c1ccccc1` [B9, 4-((nitrooxy)methyl)phenyl benzoate], the “selectivity for CLL cells compared to PBMCs” value in the assay on Primary CLL cells (FIG. 3, sensitivity of CLL cells vs PBMCs, 24 h) is given as “selective for CLL cells”. Besides, the pEC50 in the assay on Primary CLL cells (Homo sapiens, CLL cell, 24 h incubation, 0.01-100 μM, 5*10^6 cells/ml, normalized to DMSO control, read-out: AnnexinV/PI assay EC50 Primary CLL) is 5.73; in the assay on MEC-1 it was 5.18; in assay [2], 4.50; in assay [3], 6.80; in [4] it was 6.05; in assay [5], 5.61. For the same molecule, the pEC50 is 5.36 in [6]; 5.71 in assay [7]; 5.17 in assay [8]; 5.14 in assay [9]; 6.64 in the assay with caspases 3 and 7. The “ATP content in JVM-3” value with JVM-3 is recorded as “reduced ATP content”. In addition, the “ATP content in EHEB” value in the assay with EHEB is recorded as “reduced ATP content”. Moreover, the “effect on CLL cells without a TP53 mutation” value in assay [1] is reported as “great effect”. Further, the “effect on TP53-mutated CLL cells in comparison to para-NO-ASA (B1)” value with TP53-mutated CLL cells was “more effective”. Also, in [10], the “ATP content in SW480, MelJuso, HCC44, SH2 and COLO704 cell lines” value is “reduced ATP content”.

(Values after US10793509B2, “Compounds useful in the treatment of neoplastic diseases” (UNIVERSITÄT ZU KÖLN, priority 2013, dated 2020).)
